According to patent US12083084B2, “Method for enhancing energy production and metabolism in cells” (REPLICON HEALTH OY, priority 2013, dated 2024):

Tested on: human primary hepatocytes
Experiment: NAD+/NADH quantification in human hepatocytes
Assay type: cell-based
Parameters: NADtot / NADH / NAD+ / NAD+/NADH: unit not given here
Settings: 48 h + 3 h
Description: For the measurement of total NAD (NADtot=NADH+NAD^+) and NAD^+/NADH ratio, a NAD^+/NADH Quantification kit (MAK037) from Sigma was used. NAD functions as an electron carrier, fluctuating between the oxidized (NAD^+) and reduced (NADH) forms. In addition, NAD^+ plays critical roles in ADP-ribosylation reaction and as a substrate for sirtuins. According to the Sigma instruction, the NAD^+/NADH Quantification kit (Sigma) provides a convenient tool for sensitive detection of NAD, NADH and their ratio without requirement to purify them from samples. Important to notice is that the kit measures NADH and NAD^+ in whole cell including all cell organelles and compartments. Mitochondrial matrix is clearly dominant NADH producer from TCA and beta oxidation (consuming naturally the same amount of NAD^+ in redox reactions). Importantly, formed NADH is also typically oxidized into NAD^+ in the matrix by Complex I in ETC. As is well known anaerobic carbohydrate metabolism, i.e. glycolysis, in cytosol also consumes NAD^+ and produces NADH.
Cell culture in NADH-tests was like in Example 1.1. The change of the medium with DGAcs was conducted at 0 h, 24 h and 48 h. NAD measurements were made at 48+3 h in all cases. For CDP also HPA was tested, and for DOO no new nutrition at 48 h was added, i.e. test was conducted in fasting conditions.

[1] = donor alpha, new nutrition at 48 h, N = 5, 1.4 (μM)
[2] = donor alpha, new nutrition at 48 h, N = 5, 14 (μM)
[3] = donor one, new nutrition at 48 h, N = 5, 1.4 (μM)
[4] = donor one, new nutrition at 48 h, N = 5, 14 (μM)
[5] = donor three, no new nutrition at 48 h (fasting), N = 3, 1.4 (μM)
[6] = donor three, no new nutrition at 48 h (fasting), N = 3, 14 (μM)

How did the “Change in NAD+/NADH vs. Control” value [1] turn out when `O.O.O=C([O-])[C@H](O)CO.O=C([O-])[C@H](O)CO.[Ca+2]` [DGAcs, D-glyceric acid, calcium salt dehydrate] was run?
Its value is −53%.

And the “NAD+” value [1]?
Its value is 0.009.

What about the “NAD+/NADH” value [1] of the same compound?
Its value is 0.040.

And the NADH [1]?
The NADH was 0.222.

And the NADtot [1]?
The NADtot was 0.231.

What about the “Change in NAD+/NADH vs. Control” value [2] of the same compound?
Its value is −62%.

What about the “NAD+” value [2] of the same compound?
Its value is 0.007.

And the “NAD+/NADH” value [2]?
Its value is 0.032.

What about the NADH [2] of the same compound?
Its NADH is 0.225.

And the NADtot [2]?
Its NADtot is 0.232.

What about the “Change in NAD+/NADH vs. Control” value [3] of the same compound?
The value was −39.3%.

And the “NAD+” value [3]?
Its value is 0.040.

And the “NAD+/NADH” value [3]?
The value was 0.139.

And the NADH [3]?
Its NADH is 0.289.

And the NADtot [3]?
Its NADtot is 0.329.

What about the “Change in NAD+/NADH vs. Control” value [4] of the same compound?
Its value is −87.2%.

What about the “NAD+” value [4] of the same compound?
Its value is 0.009.

What about the “NAD+/NADH” value [4] of the same compound?
Its value is 0.029.

And the NADH [4]?
Its NADH is 0.294.

What about the NADtot [4] of the same compound?
The NADtot was 0.302.

And the “Change in NAD+/NADH vs. Control” value [5]?
Its value is −64.6%.

And the “NAD+” value [5]?
Its value is 0.004.

What about the “NAD+/NADH” value [5] of the same compound?
Its value is 0.017.

And the NADH [5]?
The NADH was 0.239.

What about the NADtot [5] of the same compound?
Its NADtot is 0.243.

And the “Change in NAD+/NADH vs. Control” value [6]?
The value was −24.0%.

And the “NAD+” value [6]?
Its value is 0.009.

What about the “NAD+/NADH” value [6] of the same compound?
The value was 0.037.

And the NADH [6]?
Its NADH is 0.232.

What about the NADtot [6] of the same compound?
The NADtot was 0.240.
